Assay results: article PMC10905675, “INX-315, a Selective CDK2 Inhibitor, Induces Cell Cycle Arrest and Senescence in Solid Tumors” (Cancer Discovery, 2023)

Legend:
Test in all cases: SelectScreen ZLYTE
Assay type in all cases: biochemical
Conditions in all cases: INX-0315 at 100nM
LCK = biological target: T1, LCK (Homo sapiens, UniProt P06239)
T1 construct: purchased Thermo Fisher Scientific SelectScreen (plus Nanosyn / Reaction Biology for CDK/cyclin lines)
In short: (§1)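 INX-315, single point 100 nmol/L, 1% DMSO; then 10-pt titration 1 µmol/L → 0.0495 nmol/L. Standard vendor conditions.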

ABL2 (Arg) = biological target: T2, ABL2 (Arg) (Homo sapiens, UniProt P42684)
T2 construct: purchased Thermo Fisher Scientific SelectScreen (plus Nanosyn / Reaction Biology for CDK/cyclin lines)
In short: as §1

STK22B (TSSK2) = biological target: T3, STK22B (TSSK2) (Homo sapiens, UniProt Q96PF2)
T3 construct: purchased Thermo Fisher Scientific SelectScreen (plus Nanosyn / Reaction Biology for CDK/cyclin lines)
In short: as §1

FGFR2 N549H = biological target: T4, FGFR2 N549H (Homo sapiens, UniProt P21802, N549H)
T4 construct: purchased Thermo Fisher Scientific SelectScreen (plus Nanosyn / Reaction Biology for CDK/cyclin lines)
In short: as §1

STK23 (MSSK1) = biological target: T5, STK23 (MSSK1) (Homo sapiens, UniProt Q9UPE1)
T5 construct: purchased Thermo Fisher Scientific SelectScreen (plus Nanosyn / Reaction Biology for CDK/cyclin lines)
T5 sequence (Q9UPE1 whole entry): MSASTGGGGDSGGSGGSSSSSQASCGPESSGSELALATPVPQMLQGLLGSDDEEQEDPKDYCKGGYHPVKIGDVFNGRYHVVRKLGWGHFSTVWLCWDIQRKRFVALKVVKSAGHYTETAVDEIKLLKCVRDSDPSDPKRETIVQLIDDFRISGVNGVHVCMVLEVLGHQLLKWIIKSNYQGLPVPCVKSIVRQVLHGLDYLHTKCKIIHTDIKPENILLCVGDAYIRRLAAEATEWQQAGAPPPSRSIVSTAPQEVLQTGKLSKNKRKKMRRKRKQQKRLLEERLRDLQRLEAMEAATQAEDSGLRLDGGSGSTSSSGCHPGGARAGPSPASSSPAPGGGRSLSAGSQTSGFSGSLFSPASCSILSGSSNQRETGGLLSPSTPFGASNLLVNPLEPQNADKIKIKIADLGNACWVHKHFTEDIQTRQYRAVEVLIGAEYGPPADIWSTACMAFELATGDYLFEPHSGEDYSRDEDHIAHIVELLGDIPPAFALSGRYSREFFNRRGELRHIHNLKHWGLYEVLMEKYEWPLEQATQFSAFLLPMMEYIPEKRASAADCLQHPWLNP
In short: as §1

AKT2 (PKB beta) = biological target: T6, AKT2 (PKB beta) (Homo sapiens, UniProt P31751)
T6 construct: purchased Thermo Fisher Scientific SelectScreen (plus Nanosyn / Reaction Biology for CDK/cyclin lines)
In short: as §1

CSNK1E (CK1 epsilon) = biological target: T7, CSNK1E (CK1 epsilon) (Homo sapiens, UniProt P49674)
T7 construct: purchased Thermo Fisher Scientific SelectScreen (plus Nanosyn / Reaction Biology for CDK/cyclin lines)
In short: as §1

MYLK2 (skMLCK) = biological target: T8, MYLK2 (skMLCK) (Homo sapiens, UniProt Q9H1R3)
T8 construct: purchased Thermo Fisher Scientific SelectScreen (plus Nanosyn / Reaction Biology for CDK/cyclin lines)
In short: as §1

PDK1 Direct = biological target: T9, PDK1 Direct (Homo sapiens, UniProt O15530)
T9 construct: purchased Thermo Fisher Scientific SelectScreen (plus Nanosyn / Reaction Biology for CDK/cyclin lines)
In short: as §1

MET (cMet) Y1235D = biological target: T10, MET (cMet) Y1235D (Homo sapiens, UniProt P08581, Y1235D)
T10 construct: purchased Thermo Fisher Scientific SelectScreen (plus Nanosyn / Reaction Biology for CDK/cyclin lines)
In short: as §1

CDK5/p35 = biological target: T11, CDK5/p35 (Homo sapiens, UniProt Q00535)
T11 construct: purchased Thermo Fisher Scientific SelectScreen (plus Nanosyn / Reaction Biology for CDK/cyclin lines)
In short: as §1

CAMK2D (CaMKII delta) = biological target: T12, CAMK2D (CaMKII delta) (Homo sapiens, UniProt Q13557)
T12 construct: purchased Thermo Fisher Scientific SelectScreen (plus Nanosyn / Reaction Biology for CDK/cyclin lines)
In short: as §1

MAP3K8 (COT) = biological target: T13, MAP3K8 (COT) (Homo sapiens, UniProt P41279)
T13 construct: purchased Thermo Fisher Scientific SelectScreen (plus Nanosyn / Reaction Biology for CDK/cyclin lines)
T13 sequence (P41279 whole entry): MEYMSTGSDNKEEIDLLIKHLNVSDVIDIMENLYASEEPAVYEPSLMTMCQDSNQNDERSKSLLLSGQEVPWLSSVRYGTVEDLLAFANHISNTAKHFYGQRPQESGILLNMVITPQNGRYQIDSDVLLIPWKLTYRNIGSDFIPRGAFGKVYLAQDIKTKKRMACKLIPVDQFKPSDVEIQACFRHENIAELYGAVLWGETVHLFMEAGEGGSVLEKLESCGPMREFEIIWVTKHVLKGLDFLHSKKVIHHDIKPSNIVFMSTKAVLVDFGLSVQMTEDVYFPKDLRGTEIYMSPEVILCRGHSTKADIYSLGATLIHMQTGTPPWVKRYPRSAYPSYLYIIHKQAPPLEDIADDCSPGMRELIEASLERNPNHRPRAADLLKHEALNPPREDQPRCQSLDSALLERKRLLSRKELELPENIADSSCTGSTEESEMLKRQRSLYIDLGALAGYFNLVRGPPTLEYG
In short: as §1

AMPK (A1/B2/G2) = biological target: T14, AMPK (A1/B2/G2) (Homo sapiens, UniProt Q13131)
T14 construct: purchased Thermo Fisher Scientific SelectScreen (plus Nanosyn / Reaction Biology for CDK/cyclin lines)
In short: as §1

MAP2K2 (MEK2) = biological target: T15, MAP2K2 (MEK2) (Homo sapiens, UniProt P36507)
T15 construct: purchased Thermo Fisher Scientific SelectScreen (plus Nanosyn / Reaction Biology for CDK/cyclin lines)
In short: as §1

EPHB3 = biological target: T16, EPHB3 (Homo sapiens, UniProt P54753)
T16 construct: purchased Thermo Fisher Scientific SelectScreen (plus Nanosyn / Reaction Biology for CDK/cyclin lines)
In short: as §1

MINK1 = biological target: T17, MINK1 (Homo sapiens, UniProt Q8N4C8)
T17 construct: purchased Thermo Fisher Scientific SelectScreen (plus Nanosyn / Reaction Biology for CDK/cyclin lines)
In short: as §1

SRC N1 = biological target: T18, SRC N1 (Homo sapiens, UniProt P12931)
T18 construct: purchased Thermo Fisher Scientific SelectScreen (plus Nanosyn / Reaction Biology for CDK/cyclin lines)
In short: as §1

KIT T670I = biological target: T19, KIT T670I (Homo sapiens, UniProt P10721, T670I)
T19 construct: purchased Thermo Fisher Scientific SelectScreen (plus Nanosyn / Reaction Biology for CDK/cyclin lines)
T19 sequence (P10721 26-976 T670I): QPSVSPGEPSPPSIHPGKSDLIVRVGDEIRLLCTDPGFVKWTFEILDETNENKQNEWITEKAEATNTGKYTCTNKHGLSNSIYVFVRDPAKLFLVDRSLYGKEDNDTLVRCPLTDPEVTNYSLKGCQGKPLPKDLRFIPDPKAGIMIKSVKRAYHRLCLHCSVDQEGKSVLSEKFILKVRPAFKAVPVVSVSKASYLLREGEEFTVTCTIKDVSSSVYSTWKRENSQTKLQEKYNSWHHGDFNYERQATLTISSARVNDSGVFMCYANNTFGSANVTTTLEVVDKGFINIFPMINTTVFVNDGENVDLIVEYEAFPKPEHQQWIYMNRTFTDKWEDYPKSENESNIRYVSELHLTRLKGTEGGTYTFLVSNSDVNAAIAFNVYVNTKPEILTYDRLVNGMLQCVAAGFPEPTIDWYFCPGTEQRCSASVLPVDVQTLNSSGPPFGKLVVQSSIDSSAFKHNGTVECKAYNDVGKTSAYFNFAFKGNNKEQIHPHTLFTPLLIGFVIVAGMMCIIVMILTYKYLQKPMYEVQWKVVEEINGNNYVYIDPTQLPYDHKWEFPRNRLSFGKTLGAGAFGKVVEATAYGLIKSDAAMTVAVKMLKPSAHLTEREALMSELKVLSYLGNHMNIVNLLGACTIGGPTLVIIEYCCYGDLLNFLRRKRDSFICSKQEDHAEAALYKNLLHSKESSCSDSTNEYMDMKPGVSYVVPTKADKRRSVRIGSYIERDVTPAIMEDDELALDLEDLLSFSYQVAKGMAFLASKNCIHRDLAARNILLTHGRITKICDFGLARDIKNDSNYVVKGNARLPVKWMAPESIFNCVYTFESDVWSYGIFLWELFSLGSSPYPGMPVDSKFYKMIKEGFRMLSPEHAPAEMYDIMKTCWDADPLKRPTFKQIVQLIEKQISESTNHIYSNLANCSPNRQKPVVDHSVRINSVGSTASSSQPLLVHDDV
In short: as §1

BTK = biological target: T20, BTK (Homo sapiens, UniProt Q06187)
T20 construct: purchased Thermo Fisher Scientific SelectScreen (plus Nanosyn / Reaction Biology for CDK/cyclin lines)
In short: as §1

STK24 (MST3) = biological target: T21, STK24 (MST3) (Homo sapiens, UniProt Q9Y6E0)
T21 construct: purchased Thermo Fisher Scientific SelectScreen (plus Nanosyn / Reaction Biology for CDK/cyclin lines)
In short: as §1

CDK18/cyclin Y = biological target: T22, CDK18/cyclin Y (Homo sapiens, UniProt Q07002)
T22 construct: purchased Thermo Fisher Scientific SelectScreen (plus Nanosyn / Reaction Biology for CDK/cyclin lines)
T22 sequence (Q07002 whole entry): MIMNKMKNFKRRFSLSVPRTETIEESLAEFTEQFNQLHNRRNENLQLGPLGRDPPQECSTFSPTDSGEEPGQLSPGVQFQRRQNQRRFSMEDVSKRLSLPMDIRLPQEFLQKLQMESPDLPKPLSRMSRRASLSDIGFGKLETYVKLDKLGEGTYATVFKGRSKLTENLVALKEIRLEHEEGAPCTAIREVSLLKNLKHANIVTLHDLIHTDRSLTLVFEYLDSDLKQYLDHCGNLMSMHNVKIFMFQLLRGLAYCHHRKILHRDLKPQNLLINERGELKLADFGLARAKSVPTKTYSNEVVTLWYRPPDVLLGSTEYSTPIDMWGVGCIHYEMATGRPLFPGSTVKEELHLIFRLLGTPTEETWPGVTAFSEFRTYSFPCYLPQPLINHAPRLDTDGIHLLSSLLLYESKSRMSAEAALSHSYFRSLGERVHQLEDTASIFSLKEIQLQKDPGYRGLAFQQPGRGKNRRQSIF
T22 sequence (Q8ND76 whole entry partner): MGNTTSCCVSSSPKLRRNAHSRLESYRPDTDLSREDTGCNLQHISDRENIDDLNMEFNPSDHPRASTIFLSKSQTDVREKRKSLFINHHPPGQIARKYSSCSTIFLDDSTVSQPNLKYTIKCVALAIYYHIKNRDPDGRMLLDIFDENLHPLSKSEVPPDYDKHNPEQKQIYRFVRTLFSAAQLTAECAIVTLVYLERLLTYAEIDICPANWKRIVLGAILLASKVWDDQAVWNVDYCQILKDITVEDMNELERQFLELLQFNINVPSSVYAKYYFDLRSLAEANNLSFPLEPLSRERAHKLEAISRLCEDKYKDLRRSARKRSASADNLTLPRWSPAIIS
In short: as §1

MAPK10 (JNK3) = biological target: T23, MAPK10 (JNK3) (Homo sapiens, UniProt P53779)
T23 construct: purchased Thermo Fisher Scientific SelectScreen (plus Nanosyn / Reaction Biology for CDK/cyclin lines)
In short: as §1

SGK2 = biological target: T24, SGK2 (Homo sapiens, UniProt Q9HBY8)
T24 construct: purchased Thermo Fisher Scientific SelectScreen (plus Nanosyn / Reaction Biology for CDK/cyclin lines)
In short: as §1

PAK2 (PAK65) = biological target: T25, PAK2 (PAK65) (Homo sapiens, UniProt Q13177)
T25 construct: purchased Thermo Fisher Scientific SelectScreen (plus Nanosyn / Reaction Biology for CDK/cyclin lines)
In short: as §1

AKT3 (PKB gamma) = biological target: T26, AKT3 (PKB gamma) (Homo sapiens, UniProt Q9Y243)
T26 construct: purchased Thermo Fisher Scientific SelectScreen (plus Nanosyn / Reaction Biology for CDK/cyclin lines)
In short: as §1

NEK6 = biological target: T27, NEK6 (Homo sapiens, UniProt Q9HC98)
T27 construct: purchased Thermo Fisher Scientific SelectScreen (plus Nanosyn / Reaction Biology for CDK/cyclin lines)
In short: as §1

PRKCI (PKC iota) = biological target: T28, PRKCI (PKC iota) (Homo sapiens, UniProt P41743)
T28 construct: purchased Thermo Fisher Scientific SelectScreen (plus Nanosyn / Reaction Biology for CDK/cyclin lines)
T28 sequence (P41743 whole entry): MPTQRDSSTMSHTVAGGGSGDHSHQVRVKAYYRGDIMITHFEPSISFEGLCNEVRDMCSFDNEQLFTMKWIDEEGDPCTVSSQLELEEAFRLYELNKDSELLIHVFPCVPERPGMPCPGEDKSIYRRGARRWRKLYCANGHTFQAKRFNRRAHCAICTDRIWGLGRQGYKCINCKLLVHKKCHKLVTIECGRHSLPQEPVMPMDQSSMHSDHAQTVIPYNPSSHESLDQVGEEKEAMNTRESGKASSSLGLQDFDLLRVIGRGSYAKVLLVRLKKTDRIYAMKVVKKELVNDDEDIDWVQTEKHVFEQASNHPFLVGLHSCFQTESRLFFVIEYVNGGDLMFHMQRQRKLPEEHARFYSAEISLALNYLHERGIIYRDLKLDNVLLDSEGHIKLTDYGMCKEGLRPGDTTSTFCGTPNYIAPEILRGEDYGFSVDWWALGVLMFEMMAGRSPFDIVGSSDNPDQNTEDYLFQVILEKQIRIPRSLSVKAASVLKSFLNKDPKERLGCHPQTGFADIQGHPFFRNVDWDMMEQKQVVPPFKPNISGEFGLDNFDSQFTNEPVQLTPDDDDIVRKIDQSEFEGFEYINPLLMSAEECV
In short: as §1

ADRBK2 (GRK3) = biological target: T29, ADRBK2 (GRK3) (Homo sapiens, UniProt P35626)
T29 construct: purchased Thermo Fisher Scientific SelectScreen (plus Nanosyn / Reaction Biology for CDK/cyclin lines)
In short: as §1

FGFR1 = biological target: T30, FGFR1 (Homo sapiens, UniProt P11362)
T30 construct: purchased Thermo Fisher Scientific SelectScreen (plus Nanosyn / Reaction Biology for CDK/cyclin lines)
In short: as §1

PDGFRA (PDGFR alpha) = biological target: T31, PDGFRA (PDGFR alpha) (Homo sapiens, UniProt P16234)
T31 construct: purchased Thermo Fisher Scientific SelectScreen (plus Nanosyn / Reaction Biology for CDK/cyclin lines)
T31 sequence (P16234 24-1089): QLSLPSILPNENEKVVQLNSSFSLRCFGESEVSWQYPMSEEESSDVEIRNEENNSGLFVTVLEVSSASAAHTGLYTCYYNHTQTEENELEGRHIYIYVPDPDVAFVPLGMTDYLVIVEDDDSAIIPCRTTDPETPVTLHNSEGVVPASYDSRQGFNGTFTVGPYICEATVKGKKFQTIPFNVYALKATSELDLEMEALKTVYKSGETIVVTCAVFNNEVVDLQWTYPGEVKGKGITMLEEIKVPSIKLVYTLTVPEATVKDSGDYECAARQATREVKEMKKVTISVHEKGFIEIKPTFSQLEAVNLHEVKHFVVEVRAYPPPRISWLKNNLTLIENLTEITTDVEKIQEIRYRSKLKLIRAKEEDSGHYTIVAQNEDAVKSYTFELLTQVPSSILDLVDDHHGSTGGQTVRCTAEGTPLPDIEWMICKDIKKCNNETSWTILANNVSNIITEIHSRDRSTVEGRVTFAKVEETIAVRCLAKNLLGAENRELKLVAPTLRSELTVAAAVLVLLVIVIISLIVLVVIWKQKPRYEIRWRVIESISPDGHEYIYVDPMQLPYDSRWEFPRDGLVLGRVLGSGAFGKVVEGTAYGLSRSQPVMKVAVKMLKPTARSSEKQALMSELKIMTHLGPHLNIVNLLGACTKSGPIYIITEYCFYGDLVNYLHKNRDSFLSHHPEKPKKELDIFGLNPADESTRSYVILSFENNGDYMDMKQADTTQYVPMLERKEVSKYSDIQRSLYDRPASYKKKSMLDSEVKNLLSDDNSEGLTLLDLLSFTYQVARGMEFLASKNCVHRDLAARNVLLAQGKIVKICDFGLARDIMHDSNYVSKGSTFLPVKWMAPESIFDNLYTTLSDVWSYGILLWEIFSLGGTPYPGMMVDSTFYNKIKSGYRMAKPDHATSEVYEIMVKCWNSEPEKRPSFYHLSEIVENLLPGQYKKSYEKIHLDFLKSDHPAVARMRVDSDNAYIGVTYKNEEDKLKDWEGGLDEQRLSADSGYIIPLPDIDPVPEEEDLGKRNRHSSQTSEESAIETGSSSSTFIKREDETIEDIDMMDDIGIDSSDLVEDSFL
In short: as §1

AURKC (Aurora C) = biological target: T32, AURKC (Aurora C) (Homo sapiens, UniProt Q9UQB9)
T32 construct: purchased Thermo Fisher Scientific SelectScreen (plus Nanosyn / Reaction Biology for CDK/cyclin lines)
T32 sequence (Q9UQB9 whole entry): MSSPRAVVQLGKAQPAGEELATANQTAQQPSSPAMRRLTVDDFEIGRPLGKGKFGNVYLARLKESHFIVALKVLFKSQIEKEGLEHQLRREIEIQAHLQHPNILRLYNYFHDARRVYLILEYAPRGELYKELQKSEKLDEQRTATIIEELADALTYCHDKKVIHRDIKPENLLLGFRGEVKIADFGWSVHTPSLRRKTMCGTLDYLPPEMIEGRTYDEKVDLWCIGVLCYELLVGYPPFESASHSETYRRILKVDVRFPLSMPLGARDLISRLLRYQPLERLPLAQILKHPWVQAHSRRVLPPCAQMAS
In short: as §1

PASK = biological target: T33, PASK (Homo sapiens, UniProt Q96RG2)
T33 construct: purchased Thermo Fisher Scientific SelectScreen (plus Nanosyn / Reaction Biology for CDK/cyclin lines)
In short: as §1

CSF1R (FMS) = biological target: T34, CSF1R (FMS) (Homo sapiens, UniProt P07333)
T34 construct: purchased Thermo Fisher Scientific SelectScreen (plus Nanosyn / Reaction Biology for CDK/cyclin lines)
In short: as §1

[1] = biological target: T35, MAPK14 (p38 alpha) Direct (Homo sapiens, UniProt Q16539)
T35 construct: purchased Thermo Fisher Scientific SelectScreen (plus Nanosyn / Reaction Biology for CDK/cyclin lines)
In short: as §1

MAPKAPK2 = biological target: T36, MAPKAPK2 (Homo sapiens, UniProt P49137)
T36 construct: purchased Thermo Fisher Scientific SelectScreen (plus Nanosyn / Reaction Biology for CDK/cyclin lines)
In short: as §1

LTK (TYK1) = biological target: T37, LTK (TYK1) (Homo sapiens, UniProt P29376)
T37 construct: purchased Thermo Fisher Scientific SelectScreen (plus Nanosyn / Reaction Biology for CDK/cyclin lines)
In short: as §1

`NS(=O)(=O)c1ccc(Nc2ncc3cc4n(c3n2)C2(CCCCC2)C(=O)NN4)cc1` [INX-315] was tested, and the inhibition at 0.1 µM (LCK) was 19%, the inhibition at 0.1 µM (ABL2 (Arg)) was 14% and the inhibition at 0.1 µM (STK22B (TSSK2)) was -2%. For the same compound, the inhibition at 0.1 µM (FGFR2 N549H) was 16%, the inhibition at 0.1 µM (STK23 (MSSK1)) was 6% and the inhibition at 0.1 µM (AKT2 (PKB beta)) was 1%. For the same compound, the inhibition at 0.1 µM (CSNK1E (CK1 epsilon)) was -5%, the inhibition at 0.1 µM (MYLK2 (skMLCK)) was 4% and the inhibition at 0.1 µM (PDK1 Direct) was 8%. The inhibition at 0.1 µM (MET (cMet) Y1235D) was -2%, the inhibition at 0.1 µM (CDK5/p35) was 87% and the inhibition at 0.1 µM (CAMK2D (CaMKII delta)) was 1%. For the same compound, the inhibition at 0.1 µM (MAP3K8 (COT)) was -1%, the inhibition at 0.1 µM (AMPK (A1/B2/G2)) was 55% and the inhibition at 0.1 µM (MAP2K2 (MEK2)) was 17%. The inhibition at 0.1 µM (EPHB3) was 3%, the inhibition at 0.1 µM (MINK1) was 15% and the inhibition at 0.1 µM (SRC N1) was 9%. For the same compound, the inhibition at 0.1 µM (KIT T670I) was 7%, the inhibition at 0.1 µM (BTK) was 10% and the inhibition at 0.1 µM (STK24 (MST3)) was 11%. The inhibition at 0.1 µM (CDK18/cyclin Y) was 9%, the inhibition at 0.1 µM (MAPK10 (JNK3)) was 11% and the inhibition at 0.1 µM (SGK2) was 5%. The inhibition at 0.1 µM (PAK2 (PAK65)) was 5%, the inhibition at 0.1 µM (AKT3 (PKB gamma)) was 6% and the inhibition at 0.1 µM (NEK6) was 1%. The inhibition at 0.1 µM (PRKCI (PKC iota)) was -5%, the inhibition at 0.1 µM (ADRBK2 (GRK3)) was 1% and the inhibition at 0.1 µM (FGFR1) was 4%. It also gave an inhibition at 0.1 µM (PDGFRA (PDGFR alpha)) of 21%, an inhibition at 0.1 µM (AURKC (Aurora C)) of 53% and an inhibition at 0.1 µM (PASK) of 2%. For the same compound, the inhibition at 0.1 µM (CSF1R (FMS)) was 95%, the inhibition at 0.1 µM [1] was 5% and the inhibition at 0.1 µM (MAPKAPK2) was 3%. For the same compound, the inhibition at 0.1 µM (LTK (TYK1)) was 7%.
